Measurements: article PMC13415951 (Journal of Experimental Botany, 2026)
Where a chain is given by its changes, count along the chain named.

Key:
[1] = target: T1, HvUGT13248 (Hordeum vulgare subsp. vulgare, UniProt M0Y4P1)
T1 sequence (M0Y4P1 1-475): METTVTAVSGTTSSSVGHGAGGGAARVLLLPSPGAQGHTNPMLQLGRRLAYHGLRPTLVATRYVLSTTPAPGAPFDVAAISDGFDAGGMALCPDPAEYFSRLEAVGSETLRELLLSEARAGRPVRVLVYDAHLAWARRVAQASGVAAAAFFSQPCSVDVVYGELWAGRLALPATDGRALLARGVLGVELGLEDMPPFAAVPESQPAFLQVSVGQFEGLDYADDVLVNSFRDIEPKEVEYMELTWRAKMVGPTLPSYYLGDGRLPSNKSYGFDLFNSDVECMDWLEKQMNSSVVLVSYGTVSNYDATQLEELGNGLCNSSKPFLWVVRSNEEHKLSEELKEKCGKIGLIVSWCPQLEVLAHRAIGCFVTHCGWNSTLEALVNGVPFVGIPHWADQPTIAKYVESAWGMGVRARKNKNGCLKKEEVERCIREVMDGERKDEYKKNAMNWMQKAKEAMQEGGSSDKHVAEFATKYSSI

[2] = target: T2, OsUGT79 (Oryza sativa subsp. japonica, UniProt Q7XT97); test: biochemical; format: biochemical
T2 construct: made in house; host or cells: E. coli
T2 sequence (Q7XT97 1-466): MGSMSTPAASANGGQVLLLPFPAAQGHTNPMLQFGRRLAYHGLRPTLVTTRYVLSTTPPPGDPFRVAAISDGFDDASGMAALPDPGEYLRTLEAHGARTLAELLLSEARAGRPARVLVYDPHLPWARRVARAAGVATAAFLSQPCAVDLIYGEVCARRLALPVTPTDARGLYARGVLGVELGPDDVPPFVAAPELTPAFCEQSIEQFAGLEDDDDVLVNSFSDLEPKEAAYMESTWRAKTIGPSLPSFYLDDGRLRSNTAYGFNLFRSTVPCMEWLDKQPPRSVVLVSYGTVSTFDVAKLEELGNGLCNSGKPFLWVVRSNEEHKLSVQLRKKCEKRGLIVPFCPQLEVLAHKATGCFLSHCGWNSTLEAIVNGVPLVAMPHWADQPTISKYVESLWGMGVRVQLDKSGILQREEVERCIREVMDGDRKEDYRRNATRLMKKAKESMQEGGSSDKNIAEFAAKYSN

[3] = system: animal cells; set-up: method as in Gruber-Dorninger et al., 2017; details: in vitro assays; ref Gruber-Dorninger et al., 2017; cited from earlier work
[4] = system: human glucuronosyltransferases in liver microsomes; set-up: method as in Woelflingseder et al., 2019; details: ref Woelflingseder et al., 2019; cited from earlier work
[5] = system: B. distachyon line OE-10R14; set-up: species or system Brachypodium distachyon; details: in vivo
[6] = target: T3, OsUGT79 Q202A (Oryza sativa subsp. japonica, UniProt Q7XT97, Q202A); format: biochemical
T3 sequence (Q7XT97 1-466 Q202A): T2 sequence (Q7XT97 1-466) with Q202A

[7] = read-out: Glucosylation rate of DON, percentage of the control

CC1(C)CCC[C@]2(C)[C@@H]3[C@H]1[C@@H](O)[C@@]2(C)C[C@H]3O [CUL, culmorin]
Specific activity (glucoside formation) [1]: 6.94 ± 0.52 nmol/min/mg
CUL glucosylation rate compared with DON [2]: 1–2%
Specific activity (glucoside formation) [2]: 1.85 ± 0.05 nmol/min/mg
remaining activity at 25 µM [2, 7]: 64 ± 3%
remaining activity at 125 µM [2, 7]: 33 ± 4%
Toxicity to animal cells [3]: low toxicity
Effect on DON-glucuronidation [4]: suppresses DON-glucuronidation
Effect of addition of CUL to 50 mg l^−1 DON on root length [5]: severe breakdown of resistance to DON
Specific activity (glucoside formation) [6]: 2.23 ± 0.08 nmol/min/mg
